Results taken from patent US7803992B2, “Methods and compositions for expressing an herbicide-tolerant polynucleotide” (Pioneer Hi-Bred International, Inc., priority 2005, dated 2010).

Assays:
[1] = system: parent elite stiff stalk inbred corn; test: Preemergence herbicide application in greenhouse: fresh shoot weight and visual injury; assay type: in vivo; conditions: preemergence, 200 g/ha, mean of four replications
[2] = system: Heterozygous GAT-HRA corn; test: as above; assay type: in vivo; conditions: preemergence, 200 g/ha, mean of four replications
[3] = system: parent elite stiff stalk inbred corn; test: Postemergence herbicide application in greenhouse: fresh shoot weight and visual injury; assay type: in vivo; conditions: postemergence, 200 g/ha (glyphosate 3472 g ae/ha, glufosinate ammonium 1870 g/ha), mean of four replications
[4] = system: Heterozygous GAT-HRA corn; test: as above; assay type: in vivo; conditions: postemergence, 200 g/ha (glyphosate 3472 g ae/ha, glufosinate ammonium 1870 g/ha), mean of four replications
GAT-HRA soybeans = test: Postemergence herbicide treatment of soybeans in greenhouse, visual injury; assay type: in vivo, soybean; conditions: postemergence, glyphosate 8960, tribenuron-methyl 35, rimsulfuron 35 g/ha
Protocol: (§1) Young regenerated transgenic plants were sprayed with 1× glyphosate (1× rate of glyphosate is 1120 g/ha of glyphosate isopropylamine) to cull segregants. Four replications were performed for each treatment. Plants were then treated with various herbicides, including glyphosate and ALS-inhibitor herbicides.
(§2) Six soybean seeds from each variety to be assayed were planted 1 cm deep in 5.5 (13.97 cm) inch square plastic container of a synthetic growth medium. […] When possible, containers were thinned to two uniform plants. Non-transgenic lines were thinned to two uniform plants per container.
(§3) Results are expressed below in Table 11 as the mean of four replications.

[5] = system: Wild Type soybeans (Jack); test: as above; assay type: in vivo, soybean; conditions: postemergence, glyphosate 8960, tribenuron-methyl 35, rimsulfuron 35 g/ha
Protocol: as §1, §2, §3

STS ® soybeans = test: as above; assay type: in vivo, soybean
Description: When possible, containers were thinned to two uniform plants.

[6] = system: Untransformed Coker 312 cotton; test: Greenhouse over the top herbicide spray of cotton; assay type: in vivo, Gossypium hirsutum; conditions: glyphosate 1.5 lb ae/acre, 2 weeks after application; rimsulfuron 16 g active ingredient/hectare without glyphosate
Description: Transformed cotton plants were rooted and then transferred to soil for further growth. Plants were then subjected to herbicide spray treatments in a greenhouse. […] Untransformed Coker 312 control plants were dead 2 weeks after glyphosate application. […] Plants transformed with both GAT and HRA were further subjected to an “over the top” application of the sulfonylurea herbicide rimsulfuron at a rate of 16 g active ingredient/hectare. […] In further experiments 32 g ai/ha rimsulfuron were applied to the cotton.

[7] = Zea mays, pre-emergence, 672 h, 0% no injury, 100% plant death, read-out: % Visual Injury
[8] = Zea mays, post-emergence, 0% no injury, 100% plant death, read-out: % Visual Injury

## CCS(=O)(=O)c1cccnc1S(=O)(=O)NC(=O)Nc1nc(OC)cc(OC)n1 [Rimsulfuron]
[1]; [7]
  pest or weed control at 200 g/ha: 74%
[1]; fresh shoots weighed 4 weeks after treatment, untreated 36.7 g
  Fresh Weight: 29.8 g
[2]; [7]
  pest or weed control at 200 g/ha: 0%
[2]; fresh shoots weighed 4 weeks after treatment, untreated 47.0 g
  Fresh Weight: 45.3 g
[3]; [8]
  pest or weed control at 200 g/ha: 91%
[3]; weighed 2 weeks after treatment, untreated 76.4 g
  Fresh Weight: 12.6 g
[4]; [8]
  pest or weed control at 200 g/ha: 10%
[4]; weighed 2 weeks after treatment, untreated 98.8 g
  Fresh Weight: 99.2 g
GAT-HRA soybeans; event 59, mean
  % Visual Injury: 87%
GAT-HRA soybeans; event 59 line 21
  % Visual Injury: 88%
GAT-HRA soybeans; event 59 line 28
  % Visual Injury: 86%
GAT-HRA soybeans; event 60, mean
  % Visual Injury: 83%
GAT-HRA soybeans; event 60 line 07
  % Visual Injury: 84%
GAT-HRA soybeans; event 60 line 11
  % Visual Injury: 83%
GAT-HRA soybeans; event 60 line 22
  % Visual Injury: 76%
GAT-HRA soybeans; event 60 line 35
  % Visual Injury: 85%
GAT-HRA soybeans; event 60 line 41
  % Visual Injury: 80%
GAT-HRA soybeans; event 60 line 46
  % Visual Injury: 78%
GAT-HRA soybeans; event 60 line 70
  % Visual Injury: 80%
GAT-HRA soybeans; event 60 line 75
  % Visual Injury: 86%
GAT-HRA soybeans; event 60 line 77
  % Visual Injury: 90%
GAT-HRA soybeans; event 60 line 79
  % Visual Injury: 86%
GAT-HRA soybeans; event 60 line 82
  % Visual Injury: 90%
GAT-HRA soybeans; event 60 line 84
  % Visual Injury: 83%
GAT-HRA soybeans; event 61, mean
  % Visual Injury: 82%
GAT-HRA soybeans; event 61 line 02
  % Visual Injury: 80%
GAT-HRA soybeans; event 61 line 02B
  % Visual Injury: 70%
GAT-HRA soybeans; event 61 line 05
  % Visual Injury: 78%
GAT-HRA soybeans; event 61 line 14
  % Visual Injury: 90%
GAT-HRA soybeans; event 61 line 18
  % Visual Injury: 89%
GAT-HRA soybeans; event 61 line 24
  % Visual Injury: 90%
GAT-HRA soybeans; event 61 line 33
  % Visual Injury: 95%
GAT-HRA soybeans; event 61 line 34
  % Visual Injury: 90%
GAT-HRA soybeans; event 61 line 47
  % Visual Injury: 78%
GAT-HRA soybeans; event 61 line 49
  % Visual Injury: 84%
GAT-HRA soybeans; event 61 line 51
  % Visual Injury: 83%
GAT-HRA soybeans; event 61 line 60
  % Visual Injury: 73%
GAT-HRA soybeans; event 61 line 62
  % Visual Injury: 71%
GAT-HRA soybeans; event 61 line 99
  % Visual Injury: 79%
GAT-HRA soybeans; event 64, mean
  % Visual Injury: 73%
GAT-HRA soybeans; event 64 line 41
  % Visual Injury: 73%
GAT-HRA soybeans; event 64 line 47
  % Visual Injury: 73%
[5]; Wild Type line 82
  % Visual Injury: 97%
[5]; Wild Type line Jack
  % Visual Injury: 97%
[5]; Wild Type, mean
  % Visual Injury: 97%
STS ® soybeans; STS ® line 25, glyphosate 8960, tribenuron-methyl 35, rimsulfuron 35 g/ha
  % Visual Injury: 97%
STS ® soybeans; STS ® line 46, glyphosate 8960, tribenuron-methyl 35, rimsulfuron 35 g/ha
  % Visual Injury: 97%
STS ® soybeans; STS ®, mean, glyphosate 8960, tribenuron-methyl 35, rimsulfuron 35 g/ha
  % Visual Injury: 97%
[6]
  damage to untransformed control plants: severe damage
